For experiment [1], the target named is PIK3CA (human) (UniProt P42336). The experiment in a line: Assessment of PIK3CA Kinase Activity in NZOV9 Cells.
Experiment [2] shares this target. The experiment in a line: Assessment of PIK3CA Kinase Activity in NZB5 Cells.

Usually IC50 stands for the concentration that inhibits the measured activity by half.

Sequence of PIK3CA (human) (P42336 whole entry, looked up): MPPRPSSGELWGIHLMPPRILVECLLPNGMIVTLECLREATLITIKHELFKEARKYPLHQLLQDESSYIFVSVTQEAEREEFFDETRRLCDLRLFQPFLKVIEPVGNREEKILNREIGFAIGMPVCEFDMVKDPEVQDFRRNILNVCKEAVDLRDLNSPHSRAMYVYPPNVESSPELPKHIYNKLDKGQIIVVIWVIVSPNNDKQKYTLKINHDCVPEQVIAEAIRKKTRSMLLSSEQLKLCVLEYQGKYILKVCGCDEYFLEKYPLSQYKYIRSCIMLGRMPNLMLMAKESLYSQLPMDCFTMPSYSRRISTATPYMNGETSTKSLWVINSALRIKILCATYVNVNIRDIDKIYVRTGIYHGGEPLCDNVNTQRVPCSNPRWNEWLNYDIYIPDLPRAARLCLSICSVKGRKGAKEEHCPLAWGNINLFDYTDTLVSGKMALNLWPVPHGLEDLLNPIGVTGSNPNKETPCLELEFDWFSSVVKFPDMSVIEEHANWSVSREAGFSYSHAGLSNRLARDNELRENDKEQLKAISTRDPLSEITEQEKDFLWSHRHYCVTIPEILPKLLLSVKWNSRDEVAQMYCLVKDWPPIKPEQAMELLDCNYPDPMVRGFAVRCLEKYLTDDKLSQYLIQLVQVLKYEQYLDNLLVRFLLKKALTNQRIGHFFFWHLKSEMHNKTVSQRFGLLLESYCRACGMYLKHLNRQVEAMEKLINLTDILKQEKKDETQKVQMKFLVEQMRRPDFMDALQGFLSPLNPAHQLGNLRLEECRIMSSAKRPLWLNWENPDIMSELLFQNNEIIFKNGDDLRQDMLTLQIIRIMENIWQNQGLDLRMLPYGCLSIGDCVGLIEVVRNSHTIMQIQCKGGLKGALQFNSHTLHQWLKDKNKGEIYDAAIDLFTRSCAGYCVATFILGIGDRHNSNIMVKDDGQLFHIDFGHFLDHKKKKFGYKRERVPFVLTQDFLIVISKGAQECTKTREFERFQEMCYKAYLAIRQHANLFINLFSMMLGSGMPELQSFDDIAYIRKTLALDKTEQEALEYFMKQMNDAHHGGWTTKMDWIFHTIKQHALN

On to `Cc1ccc(C(=O)O)cc1S(=O)(=O)N(C)N=Cc1cnn2ccc(C#N)cc12`, for which the IC50 against PIK3CA (human) [1] and at PIK3CA (human) [2] was > 20 µM each time.

As for `Cc1ccc([N+](=O)[O-])cc1C(=O)N(C)N=Cc1cnn2ccc(C#N)cc12`, the IC50 on PIK3CA (human) [1] and on PIK3CA (human) [2] was > 20 µM throughout.

For the molecule `CN(C)c1ccc([N+](=O)[O-])cc1S(=O)(=O)N(C)N=Cc1cnn2ccc(C#N)cc12`, at PIK3CA (human) [1], the half-maximal inhibitory concentration (IC50) worked out at 0.1 µM.

For `CC(=O)Nc1ccc(C)c(S(=O)(=O)N(C)N=Cc2cnn3ccc(C#N)cc23)c1`, the IC50 at PIK3CA (human) [1] and at PIK3CA (human) [2] was > 20 µM each time.

Consider `Cc1cc([N+](=O)[O-])ccc1S(=O)(=O)N(C)N=Cc1cnn2ccc(C#N)cc12`, for which the IC50 against PIK3CA (human) [1] and against PIK3CA (human) [2] was > 20 µM each time.

In the case of `Cc1c([N+](=O)[O-])cccc1S(=O)(=O)N(C)N=Cc1cnn2ccc(C#N)cc12`, the IC50 against PIK3CA (human) [1] and against PIK3CA (human) [2] was > 20 µM in each case.

Regarding `Cc1ccccc1S(=O)(=O)N(C)N=Cc1cnn2ccc(C#N)cc12`, at PIK3CA (human) [2], the IC50 is > 20 µM.

Regarding `Cc1ccc(F)cc1S(=O)(=O)N(C)N=Cc1cnn2ccc(C#N)cc12`, on PIK3CA (human) [2], the IC50 is > 20 µM.

The values are drawn from the Kinase Knowledgebase extract (Sharma et al. 2016).
